Key:
Type in all cases: biochemical
[1] = target: CDK1/CyclinA2 (Homo sapiens (Human), UniProt P06493); experiment: CDK kinase inhibitory activity, ADP-Glo Kinase Assay, CDK1/CyclinA2
Method: (§1) Measurement of CDK kinase inhibitory activity of the compounds of this disclosure.
(§2) In vitro inhibitory effect of the compounds of the disclosure on CDK (CDK1, CDK4 and CDK6) kinase activity was tested by the following method.
(§3) 1.1 Instrument and Kit Information
(§4) 1.2 Experimental Preparation • 1.2.1 Preparation of Kinase Reaction Buffer I: The 5×Reaction Buffer A (Promega; V307A-C) provided in the kit was mixed and diluted with MILLI-Q® H2O and 0.1 M DTT (dithiothreitol) to give 4× kinase buffer, and then MILLI-Q® H2O was further added to finally formulate the solution into 1× Kinase buffer.
(§5) 1 μl of 10 mM standard substance stock solution was taken and added to 9 μl of kinase reaction buffer I and mixed well; then 90 μl of kinase reaction buffer I was added and mixed well; then 100 μl of kinase reaction buffer I was added and mixed well. The final concentration was 50 μM. • b. 40 μl of kinase reaction buffer II was added into B2 to B10 of a 96-well plate, and 50 μl of the above solution was added into B1; • c. 10 μl of solution was taken from well B1, added into B2, and mixed well; then 10 μl of the resulting solution was taken and added into B3, and dilution was carried out in sequence to B9, so as to obtain control solutions that are diluted by 5-fold sequentially. • (2) Preparation of test compound solution: • a. Test compound solutions at a certain concentration were taken, respectively, diluted with kinase reaction buffer I to a final concentration of 50 μM compound solution; • b. 40 μl of kinase reaction buffer II was added into H2 to H10 of the 96-well plate; and 50 μl of the above solution was added into H1; • c. 10 μl of solution was taken from well H1, added into H2, and mixed well; then 10 μl of the resulting solution was taken and added into H3, and dilution was carried out in sequence to H9, so as to obtain test compound solutions that are diluted by 5-fold sequentially. • 1.2.4 Preparation of a mixed solution of reaction substrate and ATP: • a. Preparation of ATP solution: • 200 μl of 0.1 mM ATP solution: 2 μl of 10 mM ATP was added to 198 μl of kinase reaction buffer I; • 300 μl of 50 μM ATP solution: 150 μl of kinase reaction buffer I was added to 150 μl of the above 0.1 mM ATP solution; • b. Preparation of 300 μl of reaction substrate solution: • 150 μl 1 μg/μl reaction substrate stock solution was added to 150 μl kinase reaction buffer I, and mixed well; • c. The above a/b solutions were mixed to obtain mixed solutions, respectively.
(§6) 1.3 Experimental process: • 1.3.1: 2 μl of compound solutions of various concentrations were taken, added to a 384-well plate, and centrifuged 3 minutes; • 1.3.2: 4 μl of kinase solution was added to each well, centrifuged at 5000 rpm and 18° C. for 10 minutes, and shaken on a plate shaker for 10 minutes; • 1.3.3: 4 μl of mixed solution of substrate and ATP was added to each well, centrifuged at 5000 rpm and 18° C. for 10 minutes, and shaken on a plate shaker at 37° C. for 90 minutes; • 1.3.4: The 384-well plate was taken out, and allowed to stand to room temperature; • 1.3.5: 10 μl of ADP-GLO™ reagent was added to each well, centrifuged at 5000 rpm and 18° C. for 18 minutes, and shaken on a plate shaker at 25° C. for 40 minutes, and then the reaction was stopped; • 1.3.6: 20 μl of kinase detection reagent was added to each well, centrifuged at 5000 rpm and 18° C. for 10 minutes, and shaken on a plate shaker at 25° C. for 30 minutes; and • 1.3.7: M1000pro MICROPLATE READER was used to read […] values.
(§7) The inhibition rate of each compound at each concentration point was calculated by the formula as follows and curve fitting was performed by GraphPad Prism 5 software to obtain the IC50 value.

[2] = target: CDK9/CyclinD3 (Homo sapiens (Human), UniProt P50750); experiment: Kinase inhibitory activity, ADP-Glo Kinase Assay, CDK9/CyclinD3
Method: as §3, §4, §5, §6, §7

[3] = target: CDK6/CyclinD3 (Homo sapiens (Human), UniProt Q00534); experiment: CDK kinase inhibitory activity, ADP-Glo Kinase Assay, CDK6/CyclinD3; conditions: for CDK1/CDK6 / CDK9/CDK6 / Pim-1/CDK6: ratio of IC50s; for CDK1/CDK6: selectivity for CDK6 over CDK1; for CDK9/CDK6: selectivity for CDK6 over CDK9; for Pim-1/CDK6: selectivity for CDK6 over Pim-1
Method: as §1, §2, §3, §4, §5, §6, §7

[4] = target: Pim-1 (Homo sapiens (Human), UniProt P11309); experiment: Kinase inhibitory activity on Pim-1
Method: as §4, §5, §6, §7

SMILES | IC50 [1] | IC50 [2] | IC50 [3] | CDK1/CDK6 [3] | CDK9/CDK6 [3] | IC50 [4] | Pim-1/CDK6 [3]
CCN1CCN(c2ccc(Nc3ncc(F)c(-c4ccc5c(c4)C4(CCCC4)C(C)=N5)n3)nc2)CC1 [Example 22, N-(5-(4-ethylpiperazin-1-yl)pyridin-2-yl)-5-fluoro-4-(2′-methylspiro[cyclopentane-1,3′-indol]-5′-yl)pyrimidine-2-amino] | 915 nM | 0.5 nM | 52.5 nM | 17.43 | 0.009 | – | –
CC1=Nc2ccc(-c3nc(Nc4ccc(N5CCN(C)CC5)cn4)ncc3F)cc2C12CCCC2 [Example 25, 5-Fluoro-N-(5-(4-methylpiperazin-1-yl)pyridin-2-yl)-4-(2′-methylspiro [cyclopentane-1,3′-indol]-5′-yl)pyrimidine-2-amino] | 417 nM | 1.09 nM | 8.78 nM | 47.51 | 0.12 | – | –
CCC1(CC)C(C)=Nc2c(F)cc(-c3nc(Nc4ccc(N5CCN(C)CC5)cn4)ncc3F)cc21 [Example 16, 4-(3,3-diethyl-7-fluoro-2-methyl-3H-indol-5-yl)-5-fluoro-N-(5-(4-methylpiperazin-1-yl)pyridin-2-yl)pyrimidine-2-amino] | – | 16.4 nM | 9.02 nM | 10.61 | 1.81 | 686 nM | 76.10
CCN1CCN(Cc2ccc(Nc3ncc(F)c(-c4cc(F)c5c(c4)C(CC)(CC)C(C)=N5)n3)nc2)CC1 [Example 10] | 436 nM | 27 nM | 47.1 nM | 9.25 | 0.57 | – | –
CCC1(C)C(C)=Nc2c(F)cc(-c3nc(Nc4ccc(N5CCN(C)CC5)cn4)ncc3F)cc21 (centres unmarked) [Example 18, 4-(3-ethyl-7-fluoro-2,3-dimethyl-3H-indol-5-yl)-5-fluoro-N-(5-(4-methylpiperazin-1-yl)pyridin-2-yl)pyrimidine-2-amino] | 190 nM | 1 nM | 2.74 nM | 69.29 | 0.36 | – | –
CC1=Nc2c(F)cc(-c3nc(Nc4ccc(N5CCN(C)CC5)cn4)ncc3F)cc2C12CCCC2 [Example 20, 5-Fluoro-4-(7′-fluoro-2′-methylspiro[cyclopentane-1,3′-indol]-5′-yl)-N-(5-(4-methylpiperazin-1-yl)pyridin-2-yl)pyrimidine-2-amino] | 1440 nM | 0.24 nM | 87.6 nM | 16.49 | 0.003 | – | –
CC1=Nc2c(F)cc(-c3nc(Nc4ccc(N5CCNCC5)cn4)ncc3F)cc2C1(C)C [Example 1, 5-fluoro-4-(7-fluoro-2,3,3-trimethyl-3H-indol-5-yl)-N-(5-(piperazin-1-yl)pyridin-2-yl)pyrimidine-2-amino] | – | 245 nM | 43 nM | 51.68 | 5.69 | 220 nM | 5.12
CC1=Nc2c(F)cc(-c3nc(Nc4ccc(C5CCN(CCO)CC5)cn4)ncc3F)cc2C12CCCC2 [Example 30, 2-(4-(6-((5-fluoro-4-(7′-fluoro-2′-methylspiro[cyclopentane-1,3′-indol]-5′-yl)pyrimidin-2-yl)amino)pyridin-3-yl)piperidin-1-yl)ethanol] | 177 nM | 0.43 nM | 0.49 nM | 360.37 | 0.88 | – | –
CC1=Nc2ccc(-c3nc(Nc4ccc(N5CCNCC5)cn4)ncc3F)cc2C12CCCC2 [Example 14, 5-fluoro-4-(2′-methylspiro[cyclopentane-1,3′-indol]-5′-yl)-N-(5-(piperazin-1-yl)pyridin-2-yl)pyrimidine-2-amino] | 234 nM | – | 4.07 nM | 57.40 | – | 28.6 nM | 7.03
CCC1(C)C(C)=Nc2c(F)cc(-c3nc(Nc4ccc(N5CCNCC5)cn4)ncc3F)cc21 (centres unmarked) [Example 7, 4-(3-ethyl-7-fluoro-2,3-dimethyl-3H-indol-5-yl)-5-fluoro-N-(5-(piperazin-1-yl)pyridin-2-yl)pyrimidine-2-amino] | – | 4.58 nM | 3.26 nM | 25.71 | 1.40 | 461 nM | 141.53
CCN1CCN(Cc2ccc(Nc3ncc(F)c(-c4ccc5c(c4)C4(CCCC4)C(C)=N5)n3)nc2)CC1 [Example 9, N-(5-((4-ethylpiperazin-1-yl)methyl)pyridin-2-yl)-5-fluoro-4-(2′-methylspiro [cyclopentane-1,3′-indol]-5′-yl)pyrimidine-2-amino] | 268 nM | 14.4 nM | 20.4 nM | 13.13 | 0.71 | 174 nM | 8.51
CC1=Nc2c(F)cc(-c3nc(Nc4ccc(N5CCN(CCO)CC5)cn4)ncc3F)cc2C12CCCC2 [Example 28, 2-(4-(6-((5-fluoro-4-(7′-fluoro-2′-methylspiro[cyclopentane-1,3′-indol]-5′-yl)pyrimidin-2-yl)amino)pyridin-3-yl)piperazin-1-yl)ethanol] | 328 nM | 0.96 nM | 6.24 nM | 52.63 | 0.15 | – | –
CCN1CCC(c2ccc(Nc3ncc(F)c(-c4cc(F)c5c(c4)C(C)(CC)C(C)=N5)n3)nc2)CC1 (centres unmarked) [Example 26, 4-(3-ethyl-7-fluoro-2,3-dimethyl-3H-indol-5-yl)-N-(5-(1-ethylpiperidin-4-yl)pyridin-2-yl)-5-fluoropyrimidine-2-amino] | – | 11 nM | 12.5 nM | 17.27 | 0.88 | – | –
CC1=Nc2ccc(-c3nc(Nc4ccc(C5CCN(C)CC5)cn4)ncc3F)cc2C1(C)C [Example 37, 5-Fluoro-N-(5-(1-methylpiperidin-4-yl)pyridin-2-yl)-4-(2,3,3-trimethyl-3H-indol-5-yl)pyrimidine-2-amino] | 73.7 nM | – | 22.9 nM | 3.22 | – | – | –
CC1=Nc2ccc(-c3nc(Nc4ccc(C5CCN(C)CC5)cn4)ncc3F)cc2C12CCCC2 [Example 23] | 50.3 nM | – | 4.53 nM | 11.10 | – | – | –
CCN1CCN(Cc2ccc(Nc3ncc(F)c(-c4cc(F)c5c(c4)C(C)(CC)C(C)=N5)n3)nc2)CC1 (centres unmarked) [Example 5, 4-(3-ethyl-7-fluoro-2,3-dimethyl-3H-indol-5-yl)-N-(5-((4-ethylpiperazin-1-yl)methyl)pyridin-2-yl)-5-fluoropyrimidine-2-amino] | 439 nM | – | 7.53 nM | 58.23 | – | – | –
CC1=Nc2ccc(-c3nc(Nc4ccc(C5CCNCC5)cn4)ncc3F)cc2C12CCCC2 [Example 15, 5-fluoro-4-(2′-methylspiro[cyclopentane-1,3′-indol]-5′-yl)-N-(5-(piperidin-4-yl)pyridin-2-yl)pyrimidine-2-amino] | 26.9 nM | – | 4.31 nM | 6.25 | – | – | –
CCN1CCN(Cc2ccc(Nc3ncc(F)c(-c4cc(F)c5c(c4)C4(CCCC4)C(C)=N5)n3)nc2)CC1 [Example 3] | – | – | 79.1 nM | – | – | 198 nM | –

Reference: US11091476B2, “Protein kinase inhibitors, preparation method and medical use thereof” (Gan & Lee Pharmaceuticals, priority 2015, dated 2021)
